Experimental data reported in PubChem BioAssay AID1963828 (Molecular Pharmacology Branch, DTP, NCI, 2024).

System: 991263-137-R1-J2-PDC complex spheroid viability
Assay: Anticancer human tumor 991263-137-R1-J2-PDC patient-derived colon adenocarcinoma cell line growth inhibition [POLQ]
Conditions: for IC50: curve of first compound; for viability, T/C: stronger effect = lower value
Outline: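 Growth inhibition in 3D: complex spheroids (tumor PDC, HUVEC, MSC) treated with POLQ inhibitor combinations; where Cmax unknown, highest tested concentration 10 microM, except SN-38 at 1 microM.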

[1] = second compound 0.0316 µM, first compound 0.00316 µM
[2] = second compound 0.0316 µM, first compound 0.01 µM
[3] = second compound 0.0316 µM, first compound 0.0316 µM
[4] = second compound 0.0316 µM, first compound 0.1 µM
[5] = second compound 0.0316 µM, first compound 0.316 µM
[6] = second compound 0.0316 µM, first compound 1 µM
[7] = second compound 0.1 µM, first compound 0.00316 µM
[8] = second compound 0.1 µM, first compound 0.01 µM
[9] = second compound 0.1 µM, first compound 0.0316 µM
[10] = second compound 0.1 µM, first compound 0.1 µM
[11] = second compound 0.1 µM, first compound 0.316 µM
[12] = second compound 0.1 µM, first compound 1 µM
[13] = second compound 0.316 µM, first compound 0.00316 µM
[14] = second compound 0.316 µM, first compound 0.01 µM
[15] = second compound 0.316 µM, first compound 0.0316 µM
[16] = second compound 0.316 µM, first compound 0.1 µM
[17] = second compound 0.316 µM, first compound 0.316 µM
[18] = second compound 0.316 µM, first compound 1 µM
[19] = second compound 1 µM, first compound 0.00316 µM
[20] = second compound 1 µM, first compound 0.01 µM
[21] = second compound 1 µM, first compound 0.0316 µM
[22] = second compound 1 µM, first compound 0.1 µM
[23] = second compound 1 µM, first compound 0.316 µM
[24] = second compound 1 µM, first compound 1 µM
[25] = second compound 3.16 µM, first compound 0.00316 µM
[26] = second compound 3.16 µM, first compound 0.01 µM
[27] = second compound 3.16 µM, first compound 0.0316 µM
[28] = second compound 3.16 µM, first compound 0.1 µM
[29] = second compound 3.16 µM, first compound 0.316 µM
[30] = second compound 3.16 µM, first compound 1 µM
[31] = second compound 10 µM, first compound 0.00316 µM
[32] = second compound 10 µM, first compound 0.01 µM
[33] = second compound 10 µM, first compound 0.0316 µM
[34] = second compound 10 µM, first compound 0.1 µM
[35] = second compound 10 µM, first compound 0.316 µM
[36] = second compound 10 µM, first compound 1 µM
[37] = second compound 0.0316 µM, first compound 3.16 µM
[38] = second compound 0.0316 µM, first compound 10 µM
[39] = second compound 0.1 µM, first compound 3.16 µM
[40] = second compound 0.1 µM, first compound 10 µM
[41] = second compound 0.316 µM, first compound 3.16 µM
[42] = second compound 0.316 µM, first compound 10 µM
[43] = second compound 1 µM, first compound 3.16 µM
[44] = second compound 1 µM, first compound 10 µM
[45] = second compound 3.16 µM, first compound 3.16 µM
[46] = second compound 3.16 µM, first compound 10 µM
[47] = second compound 10 µM, first compound 3.16 µM
[48] = second compound 10 µM, first compound 10 µM
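Further: spheroids exposed to compounds for 7 days before readout.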
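Wherever viability, T/C is given: 100% = DMSO vehicle control viability.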

COc1cccc(OCCCN)c1-c1cc(Nc2cnc(C#N)cn2)n[nH]1 + Cc1cccc(N(C)C(=O)C2C(O)CCN2c2nc(C)cc(C(F)(F)F)c2C#N)c1
IC50 (second compound 0.0316 µM): 677 nM
IC50 (second compound 0.1 µM): 730 nM
IC50 (second compound 0.316 µM): 879 nM
IC50 (second compound 1 µM): 994 nM
IC50 (second compound 3.16 µM): 833 nM
IC50 (second compound 10 µM): 624 nM
viability, T/C [1]: 113%
viability, T/C [2]: 104%
viability, T/C [3]: 90.1%
viability, T/C [4]: 85.2%
viability, T/C [5]: 61.2%
viability, T/C [6]: 42.8%
viability, T/C [7]: 111%
viability, T/C [8]: 95.8%
viability, T/C [9]: 104%
viability, T/C [10]: 88.2%
viability, T/C [11]: 62.2%
viability, T/C [12]: 45.4%
viability, T/C [13]: 105%
viability, T/C [14]: 99.6%
viability, T/C [15]: 91.5%
viability, T/C [16]: 94%
viability, T/C [17]: 71.4%
viability, T/C [18]: 47%
viability, T/C [19]: 96.2%
viability, T/C [20]: 101%
viability, T/C [21]: 96.7%
viability, T/C [22]: 83%
viability, T/C [23]: 76.7%
viability, T/C [24]: 49.1%
viability, T/C [25]: 110%
viability, T/C [26]: 108%
viability, T/C [27]: 89.3%
viability, T/C [28]: 94.8%
viability, T/C [29]: 79.9%
viability, T/C [30]: 43.4%
viability, T/C [31]: 93.7%
viability, T/C [32]: 96.4%
viability, T/C [33]: 91.6%
viability, T/C [34]: 76.1%
viability, T/C [35]: 55%
viability, T/C [36]: 46.5%

CC1COCCN1c1cc(C2(S(C)(=N)=O)CC2)nc(-c2ccnc3[nH]ccc23)n1 (stereo not drawn) + Nc1ccc(C#CCN(C(=O)Cc2ncc(C(F)(F)F)cc2C(F)(F)F)c2ccc(F)cc2)nn1
IC50 (second compound 0.0316 µM): > 10000 nM
IC50 (second compound 0.1 µM): > 10000 nM
IC50 (second compound 0.316 µM): > 10000 nM
IC50 (second compound 1 µM): > 10000 nM
IC50 (second compound 3.16 µM): > 10000 nM
IC50 (second compound 10 µM): > 10000 nM
viability, T/C [3]: 100%
viability, T/C [4]: 104%
viability, T/C [5]: 108%
viability, T/C [6]: 109%
viability, T/C [37]: 97.5%
viability, T/C [38]: 86%
viability, T/C [9]: 114%
viability, T/C [10]: 110%
viability, T/C [11]: 93.9%
viability, T/C [12]: 105%
viability, T/C [39]: 108%
viability, T/C [40]: 97.2%
viability, T/C [15]: 97.7%
viability, T/C [16]: 103%
viability, T/C [17]: 110%
viability, T/C [18]: 103%
viability, T/C [41]: 108%
viability, T/C [42]: 89.2%
viability, T/C [21]: 119%
viability, T/C [22]: 109%
viability, T/C [23]: 106%
viability, T/C [24]: 106%
viability, T/C [43]: 104%
viability, T/C [44]: 85.1%
viability, T/C [27]: 101%
viability, T/C [28]: 102%
viability, T/C [29]: 102%
viability, T/C [30]: 97.5%
viability, T/C [45]: 101%
viability, T/C [46]: 83.9%
viability, T/C [33]: 109%
viability, T/C [34]: 106%
viability, T/C [35]: 115%
viability, T/C [36]: 99.5%
viability, T/C [47]: 93.4%
viability, T/C [48]: 63.6%

COc1cccc(OCCCN)c1-c1cc(Nc2cnc(C#N)cn2)n[nH]1 + COC1C(OC(N)=O)C(O)C(Oc2ccc3c(O)c(NC(=O)c4ccc(O)c(CC=C(C)C)c4)c(=O)oc3c2C)OC1(C)C
IC50 (second compound 0.0316 µM): 276 nM
IC50 (second compound 0.1 µM): 421 nM
IC50 (second compound 0.316 µM): 338 nM
IC50 (second compound 1 µM): 459 nM
IC50 (second compound 3.16 µM): 491 nM
IC50 (second compound 10 µM): 513 nM
viability, T/C [1]: 111%
viability, T/C [2]: 109%
viability, T/C [3]: 84.4%
viability, T/C [4]: 63.6%
viability, T/C [5]: 52.1%
viability, T/C [6]: 35.6%
viability, T/C [7]: 97.3%
viability, T/C [8]: 89.4%
viability, T/C [9]: 92.9%
viability, T/C [10]: 69.2%
viability, T/C [11]: 59.6%
viability, T/C [12]: 28.7%
viability, T/C [13]: 99.3%
viability, T/C [14]: 104%
viability, T/C [15]: 102%
viability, T/C [16]: 77.8%
viability, T/C [17]: 53.2%
viability, T/C [18]: 29.6%
viability, T/C [19]: 111%
viability, T/C [20]: 80%
viability, T/C [21]: 80.6%
viability, T/C [22]: 75.8%
viability, T/C [23]: 61.4%
viability, T/C [24]: 33.7%
viability, T/C [25]: 109%
viability, T/C [26]: 74.2%
viability, T/C [27]: 91.9%
viability, T/C [28]: 87.5%
viability, T/C [29]: 59.3%
viability, T/C [30]: 34.8%
viability, T/C [31]: 75.8%
viability, T/C [32]: 95.2%
viability, T/C [33]: 90%
viability, T/C [34]: 76.9%
viability, T/C [35]: 59.3%
viability, T/C [36]: 37.9%

C#Cc1c(F)ccc2cc(O)cc(-c3ncc4c(N5CC6CCC(C5)N6)nc(OCC56CCCN5CC(F)C6)nc4c3F)c12 (stereo not drawn) + COC1C(OC(N)=O)C(O)C(Oc2ccc3c(O)c(NC(=O)c4ccc(O)c(CC=C(C)C)c4)c(=O)oc3c2C)OC1(C)C
IC50 (second compound 0.0316 µM): > 10000 nM
IC50 (second compound 0.1 µM): > 10000 nM
IC50 (second compound 0.316 µM): > 10000 nM
IC50 (second compound 1 µM): > 10000 nM
IC50 (second compound 3.16 µM): > 10000 nM
IC50 (second compound 10 µM): > 10000 nM
viability, T/C [3]: 103%
viability, T/C [4]: 107%
viability, T/C [5]: 105%
viability, T/C [6]: 109%
viability, T/C [37]: 108%
viability, T/C [38]: 95.1%
viability, T/C [9]: 103%
viability, T/C [10]: 106%
viability, T/C [11]: 99.4%
viability, T/C [12]: 88.2%
viability, T/C [39]: 116%
viability, T/C [40]: 104%
viability, T/C [15]: 98.9%
viability, T/C [16]: 120%
viability, T/C [17]: 118%
viability, T/C [18]: 91.5%
viability, T/C [41]: 114%
viability, T/C [42]: 92.7%
viability, T/C [21]: 95.4%
viability, T/C [22]: 113%
viability, T/C [23]: 112%
viability, T/C [24]: 107%
viability, T/C [43]: 117%
viability, T/C [44]: 90.6%
viability, T/C [27]: 104%
viability, T/C [28]: 123%
viability, T/C [29]: 122%
viability, T/C [30]: 121%
viability, T/C [45]: 109%
viability, T/C [46]: 104%
viability, T/C [33]: 102%
viability, T/C [34]: 102%
viability, T/C [35]: 102%
viability, T/C [36]: 110%
viability, T/C [47]: 102%
viability, T/C [48]: 91.6%
